Columns and labels:
Experiment in all cases: relative viability (nuclei count vs DMSO), 5 days (fraction); higher = more cells survive
[1] = compound: CCN(CC)CCNC(=O)c1c(C)[nH]c(/C=C2\C(=O)Nc3ccc(F)cc32)c1C [Sunitinib] + O=C(c1cc(Cc2n[nH]c(=O)c3ccccc23)ccc1F)N1CCN(C(=O)C2CC2)CC1 [Olaparib] (partner 8 µM)
In short: (§1)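 Nuclei were stained with Hoechst during a one-step fixation (final 0.05% Triton X-100, 1% formaldehyde, 1 ug/ml Hoechst) carried out 5 days after dosing, then counted on 4× images. The cells, lung cancer lines in 1536-well plates, had been dosed by pin tool the day after seeding with one drug alone or a fixed anchor-drug dose plus five library-drug doses (not always all listed) in √10 steps. Relative viability is the nuclei count in treated wells divided by that in vehicle wells, and each value is the median of duplicate plates.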

[2] = compound: CCN(CC)CCNC(=O)c1c(C)[nH]c(/C=C2\C(=O)Nc3ccc(F)cc32)c1C [Sunitinib] + Nc1nc2[nH]cc(CCc3ccc(C(=O)N[C@@H](CCC(=O)O)C(=O)O)cc3)c2c(=O)[nH]1 [Pemetrexed] (partner 0.2 µM)
In short: as §1

[3] = compound: CCN(CC)CCNC(=O)c1c(C)[nH]c(/C=C2\C(=O)Nc3ccc(F)cc32)c1C [Sunitinib] + O=C(CCCCCCC(=O)Nc1ccccc1)NO [Vorinostat] (partner 1 µM)
In short: as §1

[4] = compound: CCN(CC)CCNC(=O)c1c(C)[nH]c(/C=C2\C(=O)Nc3ccc(F)cc32)c1C [Sunitinib] + C[C@]1(O)C[C@@H](c2nc(-c3ccc4ccc(-c5ccccc5)nc4c3)c3c(N)nccn32)C1 [Linsitinib] (partner 1 µM)
In short: as §1

Cell Line | relative viability ([1]; first compound 0.02 µM) | relative viability ([1]; first compound 0.06325 µM) | relative viability ([1]; first compound 0.2 µM) | relative viability ([1]; first compound 0.6325 µM) | relative viability ([1]; first compound 2 µM) | relative viability ([2]; first compound 0.02 µM) | relative viability ([2]; first compound 0.06325 µM) | relative viability ([2]; first compound 0.2 µM) | relative viability ([2]; first compound 0.6325 µM) | relative viability ([2]; first compound 2 µM) | relative viability ([3]; first compound 0.02 µM) | relative viability ([3]; first compound 0.06325 µM) | relative viability ([3]; first compound 0.2 µM) | relative viability ([3]; first compound 0.6325 µM) | relative viability ([3]; first compound 2 µM) | relative viability ([4]; first compound 0.02 µM) | relative viability ([4]; first compound 0.06325 µM) | relative viability ([4]; first compound 0.2 µM) | relative viability ([4]; first compound 0.6325 µM) | relative viability ([4]; first compound 2 µM)
NCI-H23 | 0.353 | 0.28 | 0.307 | 0.312 | 0.307 | 0.689 | 0.823 | 0.922 | 0.86 | 0.563 | 0.625 | 0.841 | 0.686 | 0.665 | 0.674 | 0.552 | 0.6 | 0.605 | 0.674 | 0.554
NCI-H322M | 0.83 | 0.771 | 0.798 | 0.802 | 0.745 | 0.654 | 0.601 | 0.652 | 0.62 | 0.577 | 0.9 | 0.807 | 0.931 | 0.847 | 0.702 | 0.871 | 0.969 | 0.985 | 0.942 | 0.754
NCI-H358 | 0.452 | 0.617 | 0.756 | 0.666 | 0.471 | 0.178 | 0.181 | 0.177 | 0.177 | 0.167 | 0.588 | 0.684 | 0.79 | 0.77 | 0.419 | 0.718 | 0.685 | 0.863 | 0.592 | 0.447
NCI-H441 | 0.481 | 0.557 | 0.796 | 0.659 | 0.61 | 0.263 | 0.253 | 0.278 | 0.235 | 0.257 | 0.67 | 0.833 |  | 0.984 | 0.85 | 0.406 | 0.491 | 0.542 | 0.555 | 0.612
NCI-H460 | 0.41 | 0.484 | 0.614 | 0.473 | 0.578 | 0.0562 | 0.061 | 0.0606 | 0.0589 | 0.0505 | 0.667 | 0.848 | 1.01 | 0.91 | 0.836 | 0.662 |  | 0.95 | 0.927 | 0.699
NCI-H520 | 0.395 | 0.338 | 0.314 | 0.377 | 0.335 | 0.61 | 0.814 | 0.686 | 0.761 | 0.6 | 0.694 | 0.793 | 0.569 | 0.674 | 0.578 | 0.86 | 1.15 | 0.911 | 0.975 | 1.01
NCI-H596 | 0.688 | 0.678 | 0.679 | 0.686 | 0.651 | 0.535 | 0.465 | 0.507 | 0.582 | 0.486 | 0.734 | 0.541 | 0.594 | 0.637 | 0.564 | 1 | 1.02 | 1.21 | 1.14 | 0.911
NCI-H647 | 0.536 | 0.517 | 0.655 | 0.639 | 0.396 | 0.189 | 0.197 | 0.187 | 0.209 | 0.193 | 0.469 | 0.572 | 0.795 | 0.648 | 0.643 |  | 1.23 | 1.28 | 0.991 | 0.969
NCI-H650 | 0.399 | 0.405 | 0.39 | 0.445 | 0.384 | 0.877 | 0.958 | 0.914 | 1.05 | 1.01 | 0.382 | 0.439 | 0.423 | 0.55 | 0.395 | 0.9 | 0.912 | 1.09 |  | 1.08
NCI-H661 | 0.716 | 0.739 | 0.733 | 0.711 | 0.773 | 0.882 | 0.958 | 0.915 | 0.978 | 0.943 | 0.751 | 0.78 | 0.826 | 0.817 | 0.839 | 0.488 | 0.513 | 0.496 | 0.572 | 0.598
NCI-H838 | 0.757 | 0.766 | 0.812 | 0.731 | 0.58 | 0.239 | 0.258 | 0.263 | 0.243 | 0.228 | 0.715 | 0.803 | 0.758 | 0.725 | 0.65 | 0.916 | 0.987 | 1.06 | 1.07 | 0.85
NCI-H1355 | 0.786 | 0.812 | 0.904 | 0.818 | 0.712 | 0.997 | 1.14 | 1.1 | 1.08 |  | 0.638 | 0.75 | 0.793 | 0.751 | 0.678 | 0.759 | 0.859 | 0.874 | 0.829 | 0.813
NCI-H1395 | 0.441 | 0.438 | 0.478 | 0.484 | 0.482 | 0.845 | 0.937 | 0.935 | 1.1 | 0.91 | 0.715 | 0.715 | 0.757 | 0.897 | 0.983 | 0.975 | 1.2 | 1.37 | 1.19 | 
NCI-H1437 | 0.623 | 0.641 | 0.614 | 0.61 | 0.647 | 0.336 | 0.329 | 0.345 | 0.309 | 0.322 | 0.804 | 0.839 | 0.876 | 0.887 |  | 0.975 | 1 | 1.2 |  | 1.02
NCI-H1651 | 0.213 | 0.196 | 0.199 | 0.17 | 0.179 | 0.597 | 0.609 | 0.617 | 0.481 | 0.604 | 0.514 | 0.736 | 0.591 | 0.5 | 0.514 | 0.882 | 1.07 | 1.09 | 0.998 | 0.96
NCI-H1666 | 0.77 | 0.825 | 0.75 | 0.862 | 0.85 | 0.827 | 0.834 | 0.936 | 0.867 | 0.997 | 1.12 | 1.06 | 1.11 | 0.996 |  | 0.701 | 0.815 | 0.971 | 0.827 | 
